The source of these data is patent US11413278B2, “Compounds and methods for promoting stress resistance” (priority 2015, dated 2022).

Data set [1] deals with T1, SENP8 (Homo sapiens, UniProt Q96LD8).
T1 sequence (Q96LD8 1-212): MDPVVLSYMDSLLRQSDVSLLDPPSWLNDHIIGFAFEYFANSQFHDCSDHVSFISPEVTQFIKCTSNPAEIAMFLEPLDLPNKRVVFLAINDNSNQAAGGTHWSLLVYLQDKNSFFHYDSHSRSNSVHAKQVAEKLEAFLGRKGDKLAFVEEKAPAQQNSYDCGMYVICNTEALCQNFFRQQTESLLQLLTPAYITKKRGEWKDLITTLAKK
The settings on record: Gr-1F: 3 screens, 10.0 μM to 12. μM; O13: 1 screen, 20. μM; cited from earlier work.

Data set [2] relates to LC3A/B puncta. Briefly: Autophagy induction analysis (LC3A/B puncta immuno-staining). The data set is classed as cell-based, human. The settings on record: for Exp. 2, normalized change of nuclei numbers (Less cells): 20X objective, lysosomal LAMP co-staining. Put shortly: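 WI-38 cells were treated with compounds for 24 hrs, then immunostained for LC3A/B (overnight, 4° C) with DAPI counterstain and imaged by high-content microscopy. Experiment 1 used total puncta intensity. Experiment 2 used LAMP2-colocalized (lysosomal) puncta. Intensity was normalized to nuclei count.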

Data set [3] has as its system NRF2. Briefly: in vitro. The data set is classed as cell-based, human.
Data set [4] in a line: in vitro. The data set is classed as cell-based, human. The settings on record: human.
In data set [5] the test system is C. elegans. The data set is classed as in vivo, Caenorhabditis elegans. The settings on record: in vivo. The essentials: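 Worms treated in liquid with compounds in 96-well plates (4 wells each, FUdR to block progeny, 0.2% DMSO controls); H2O2 at 500 μM final added on day 4 of adulthood and viability scored daily.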
Data set [6] concerns human protein targets. The settings on record: PubChem database queries; cited from earlier work.
The subject of data set [7] is HTB-178 lung tumor cells (EGFR+, PIK3CA+, RB1−, TP53−). Briefly: Killing effects on HTB-178 tumor cells. The data set is classed as cell-based, human. The settings on record: Assay 1(y); at 10 uM, 1st.

Take `Cc1ccc(NC(=O)c2ccc([N+](=O)[O-])o2)cc1C` [Gr-1F]: the SENP8 inhibition in data set [1] is given as 60%-80%. In addition, in data set [2] (Exp. 1, 10 μM, 10X objective, WI-38 cells), the “Exp. 1, induction of LC3A/B puncta (Up), total intensity normalized by total number of nuclei in the fields” value is on record as “Up, 151%, p < 0.01”. Further, the “Exp. 2, normalized change of nuclei numbers (Less cells)” value in data set [2] (Exp. 2, 10 μM, WI-38 cells) is on record as “Less cells, 82%,”; in data set [2] (Exp. 2, 20 μM, WI-38 cells) it was “Less cells, 73%,”. In addition, the “H = Potential Autophagy Induction” value in data set [2] (score) and in data set [2] (summary score) was 0 in each case. In addition, in data set [3] (human, 24 h, 10 uM), the “viability of non-stressed cells, reduced by” value is listed as “by 50%)”. In addition, the “J = NRF2-dependency for H2O2-resistance” value in data set [3] (score) and in data set [3] (summary score) was 0 each time. Besides, in data set [4], the cytotoxicity at 24 h, 10 uM was 50%. In data set [5], the “L = H2O2-resistance in worms” value is 0. Further, the “N = H2O2-resistance in woms” value in data set [5] was 0. For the same compound, the “Potential targets: human protein targets (confirmed)” value in data set [6] is “CASP3, CFTR, GMNN, IDH1, IL1B, JAK2, SENP6, SENP7, SENP8, STAT1, and TDP1”.

Consider `O=C(c1ccc([N+](=O)[O-])o1)N1CCc2ccccc21` [O13], for which the SENP8 inhibition in data set [1] is ~50%. In addition, in data set [7], the “Potential killing effects on HTB-178 tumor cells, 1st” value was “YES;”. Besides, the “H = Potential Autophagy Induction” value in data set [2] (score) amounted to 0. For the same compound, the “H = Potential Autophagy Induction” value in data set [2] (summary score) is recorded as 0. The “J = NRF2-dependency for H2O2-resistance” value in data set [3] (score) is 0. In addition, the “J = NRF2-dependency for H2O2-resistance” value in data set [3] (summary score) was found to be 0. Besides, in data set [5], the “H2O2-resistance assay, 1st experiment” value is on record as “YES;”; the “L = H2O2-resistance in worms” value turned out to be 0; the “N = H2O2-resistance in woms” value is recorded as 0. Also, in data set [6], the “Potential targets: human protein targets (confirmed)” value was “CASP3, DRD2, GMNN, HCRTR1, NR5A1, NR5A2, SENP6, SENP8, SSP1, and TDP1”.
